Like-named read-outs stand apart in the source and are kept apart here.
Legend:
[1] = test system: P. falciparum 3D7 (chloroquine-sensitive strain); assay: In vitro antiplasmodial image-based assay; format: cell-based, Plasmodium falciparum; details: for IC50 / inhibition at 80 µM: Plasmodium falciparum; for IC50: read-out: Pf 3D7 IC50 ± SD; for Selectivity index (fold difference) IC50(HEK293)/IC50(Pf 3D7): HEK293 versus Pf 3D7; for inhibition at 80 µM: 3D7, accurate IC50 not determinable, read-out: growth inhibition against Pf 3D7 at the assay top dose
Protocol: Plasmodium falciparum 3D7 were cultured in RPMI1640 (Life Technologies, Camarillo, CA, USA) supplemented with 2.5 mg/mL Albumax II, 5% AB human serum, 25 mM HEPES, and 0.37 mM hypoxanthine. Human red blood cells (RBC) (O+) were supplied by Australian Red Cross LifeBlood in accordance with agreement 23-05QLD-23. Use of human RBC for antiplasmodial experimentation was in accordance with Griffith University Human Ethics Exemption Approval #03/08/11019. Ring-stage parasites were treated with compounds following two rounds of sorbitol synchronisation, as previously described. Puromycin, chloroquine, pyrimethamine, and dihydroartemisinin were used as reference compounds. Following incubation of assay plates for 72 h at 37 °C, and 5% CO2 and 5% O2, parasites were stained with 2-(4-amidinophenyl)-1H-indole-6-carboxamidine (DAPI) and imaged using an Opera PhenixPlus™ High Content Screening System (PerkinElmer, Waltham, MA, USA). Images were analysed using the Harmony software (PerkinElmer, Waltham, MA, USA). […]
In vitro antiplasmodial image-based assay
Plasmodium falciparum 3D7 were cultured in RPMI1640 (Life Technologies, Camarillo, CA, USA) supplemented with 2.5 mg/mL Albumax II, 5% AB human serum, 25 mM HEPES, and 0.37mM hypoxanthine. Human red blood cells (RBC) (O+) were supplied by Australian Red Cross LifeBlood in accordance with agreement 23-05QLD-23. Use of human RBC for anti-plasmodial experimentation was in accordance with Griffith University Human Ethics Exemption Approval #03/08/11019. Ring stage parasites were treated with compounds following two rounds of sorbitol synchronisation, as previously described. Puromycin, chloroquine, pyrimethamine, and dihydroartemisinin were used as reference compounds. Following incubation of assay plates for 72 h at 37 °C, and 5% CO2 and 5% O2, parasites were stained with 2-(4-amidinophenyl)-1H-indole-6-carboxamidine (DAPI) and imaged using an Opera PhenixPlusTM High Content Screening System (PerkinElmer, Waltham, MA, USA).
Images were analysed using Harmony software (PerkinElmer, Waltham, MA, USA).

HEK293 cells = assay: In vitro cytotoxicity assay (resazurin); format: cell-based, human; details: for cytotoxicity against HEK293 cells at the top concentration tested (in words): 80 µM
Protocol: (§1) Human embryonic kidney (HEK293) cells were maintained in DMEM (Life Technologies, Camarillo, CA, USA) containing 10% FBS (Hyclone™ ThermoFisher, Melbourne, Australia). Cytotoxicity testing was undertaken as previously described. In brief, 5 μL of test compound was added to the well of black/clear tissue culture-treated, 384-well plates containing 2000 adherent HEK293 cells/well and incubated 72 h at 37 °C in 5% CO2. […], 5 µL of 600 µM resazurin, diluted in growth media, was added. Plates were further incubated for 6 h and measured for fluorescence at 530 nm excitation and 595 nm emission. The % inhibition was calculated using 0.4% DMSO (no inhibition) and 50 μM puromycin (100% inhibition) data. Puromycin was included as a reference compound to assess assay validity. IC50 values were obtained by plotting % inhibition against log dose using GraphPad Prism v.6 (San Diego, CA, USA) nonlinear regression with a variable slope plot.
In vitro cytotoxicity assay
Human embryonic kidney (HEK293) cells were maintained in DMEM (Life
Technologies, Camarillo, CA, USA) containing 10% FBS (Hyclone™ ThermoFisher, Melbourne, Australia). Cytotoxicity testing was undertaken as previously described.
as §1, with “In brief,” for “Human embryonic kidney (HEK293) cells were maintained in DMEM (Life Technologies, Camarillo, CA, USA) containing 10% FBS (Hyclone™ ThermoFisher, Melbourne, Australia). Cytotoxicity testing was undertaken as previously described. In brief,”, “and incubated for 72 h” for “and incubated 72 h”, “slope plot. […]” for “slope plot.”

[2] = P. falciparum 3D7, ring-stage, 72 h, mean of duplicate, n = 1
[3] = Homo sapiens, HEK293, at top concentration 80 µM, 72 h, mean of duplicate, n = 1, read-out: HEK293 % inhibition ± SD
[4] = reference compounds, P. falciparum 3D7, 72 h

`CCN(CC)CCCC(C)Nc1ccnc2cc(Cl)ccc12` (centres unmarked) [CQ, chloroquine, reference compound] gave an IC50 ([1]; 3D7, 72 h) of 0.0212 ± 0.00566 µM.
With `Clc1ccc(-c2nnc3cncc(Cl)n23)cc1` [Compound 1, 5-chloro-3-(4-chlorophenyl)-[1,2,4]triazolo[4,3-a]pyrazine] the “Selectivity index (fold difference) IC50(HEK293)/IC50(Pf 3D7)” value [1] was greater than 6, the IC50 [1, 2] was 12.6 ± 1.9 µM and the “cytotoxicity against HEK293 cells at the top concentration tested (in words)” value (“cytotoxicity against HEK293 cells” for short) (HEK293 cells) was “no cytotoxicity”.
With `Clc1ccc(-c2nnc3c(NCCc4ccccc4)nccn23)cc1` [Compound 2, 3-(4-Chlorophenyl)-N-phenethyl-[1,2,4]triazolo[4,3-a]pyrazin-8-amine] the inhibition at 80 µM [1] was less than 100% and the “cytotoxicity against HEK293 cells” value (HEK293 cells) was “no cytotoxicity”.
In the case of `Fc1ccc(CCNc2nccn3c(-c4ccc(Cl)cc4)nnc23)cc1` [Compound 3], the inhibition at 80 µM [1] is reported as less than 100%, the “cytotoxicity against HEK293 cells” value (HEK293 cells) is reported as “some inhibition” and the inhibition at 80 µM (HEK293 cells; [3]) is reported as 74 ± 7%.
Work on `Clc1ccc(-c2nnc3c(NCc4ccccc4)nccn23)cc1` [Compound 4] yielded an inhibition at 80 µM [1] of less than 100%.
Work on `Fc1ccc(CNc2nccn3c(-c4ccc(Cl)cc4)nnc23)cc1` [Compound 5] yielded an inhibition at 80 µM [1] of less than 100%.
`CCCNc1nccn2c(-c3ccc(Cl)cc3)nnc12` [Compound 6] gave an inhibition at 80 µM [1] of less than 100%.
`CC(C)CCNc1nccn2c(-c3ccc(Cl)cc3)nnc12` [Compound 7, 3-(4-Chlorophenyl)-N-isopentyl-[1,2,4]triazolo[4,3-a]pyrazin-8-amine] showed an inhibition at 80 µM [1] of less than 100%.
`Clc1ccc(-c2nnc3c(NC4CCCCC4)nccn23)cc1` [Compound 8] gave an inhibition at 80 µM [1] of less than 100%.
In the case of `COCCNc1nccn2c(-c3ccc(Cl)cc3)nnc12` [Compound 9], the inhibition at 80 µM [1] is reported as less than 100%.
In the case of `CN(C)CCNc1nccn2c(-c3ccc(Cl)cc3)nnc12` [Compound 10, N^1-(3-(4-Chlorophenyl)-[1,2,4]triazolo[4,3-a]pyrazin-8-yl)-N^2,N^2-dimethylethane-1,2-diamine], the “Selectivity index (fold difference) IC50(HEK293)/IC50(Pf 3D7)” value [1] is reported as greater than 3 and the IC50 [1, 2] is reported as 23.3 ± 1.7 µM.
With `CCN(CC)CCNc1nccn2c(-c3ccc(Cl)cc3)nnc12` [Compound 11] the “Selectivity index (fold difference) IC50(HEK293)/IC50(Pf 3D7)” value [1] was greater than 4 and the IC50 [1, 2] was 22 ± 2.4 µM.
`CN(C)CCCNc1nccn2c(-c3ccc(Cl)cc3)nnc12` [Compound 12] was tested, and the “Selectivity index (fold difference) IC50(HEK293)/IC50(Pf 3D7)” value [1] was greater than 4 and the IC50 [1, 2] was 22 ± 1.56 µM.
Work on `CCN(CC)CCCNc1nccn2c(-c3ccc(Cl)cc3)nnc12` [Compound 13] yielded an IC50 [1, 2] of 11.3 ± 0.57 µM and an inhibition at up to 80 µM (HEK293 cells; [3]) of 48 ± 5%.
In the case of `Clc1ccc(-c2nnc3c(NCCN4CCNCC4)nccn23)cc1` [Compound 14], the IC50 [1, 2] is reported as 9.9 ± 1.27 µM and the inhibition at 80 µM (HEK293 cells; [3]) is reported as 84 ± 4%.
For `CC(C)(C)OC(=O)NCCCCNc1nccn2c(-c3ccc(Cl)cc3)nnc12` [Compound 15, tert-Butyl(4-((3-(4-chlorophenyl)-[1,2,4]triazolo[4,3-a]pyrazin-8 yl)amino)butyl)carbamate], the inhibition at 80 µM [1] was less than 100% and the inhibition at 80 µM (HEK293 cells; [3]) was 57 ± 4%.
Molecule `C[C@H]1[C@@H](O)O[C@@H]2O[C@@]3(C)CC[C@H]4[C@H](C)CC[C@@H]1[C@@]24OO3` [DHA, dihydroartemisinin, reference compound] has an IC50 [1, 4] of 0.000475 ± 9e-05 µM.
For `CCc1nc(N)nc(N)c1-c1ccc(Cl)cc1` [PMA, pyrimethamine, reference compound], the IC50 [1, 4] was 0.0112 ± 0.00212 µM.
For `COc1ccc(C[C@H](N)C(=O)N[C@H]2[C@@H](O)[C@H](n3cnc4c(N(C)C)ncnc43)O[C@@H]2CO)cc1` [PMY, puromycin, reference compound], the “Selectivity index (fold difference) IC50(HEK293)/IC50(Pf 3D7)” value [1] was 13, the IC50 [1, 4] was 0.0338 ± 0.00566 µM and the IC50 (HEK293 cells; Homo sapiens, HEK293, reference compounds, 72 h, read-out: HEK293 IC50 ± SD) was 0.43 ± 0.0283 µM.

From publication PMC12207250, “Investigations of amination reactions on an antimalarial 1,2,4-triazolo[4,3-a]pyrazine scaffold” (Beilstein Journal of Organic Chemistry, 2025)
